# Source: patent US8357501B2, “Tissue protective erythropoietin receptor (NEPOR) and methods of use” (Molecular Health GmbH, priority 2007, dated 2013)
# Read-outs that look alike come from different tables or passages of the source. [5mC] = 5-methylcytosine
# Legend:
# [1] = tested on: EphB4 expression in the transiently transfected 293T cell line; assay: EphB4 knockdown by antisense ODN in transiently transfected cells; type: cell-based; settings: cytosine at the CpG site methylated, compared with AS-10; data not shown
# erythropoiesis = settings: cited from earlier work
# tissue injury = settings: wide variety of in vivo and in vitro models, cited from earlier work
# HeyA8-MDR cells = assay: EPH-B4 siRNA effect on tumor promoting effect of EPO in nude mice (FIG. 17); type: in vivo; settings: HeyA8 MDR i.p.
# Procedure: Female nude mice were injected i.p. with 1×10^6 HeyA8-MDR cells. Day eight following injection the cells were treated with control siRNA-DOPC, EPH-B4 siRNA-DOPC, EPO, or in EPO+ control or EPH-B4 siRNA-DOPC (10 per group). (50 U EPO given 3× week, 5 μg siRNA 2× week). Mice were sacrificed on day 25 and tumor weights were measured. Statistics were done using students T-test. B) Distribution of tumor weight per group.
# In these experiments we sought to determine the response to erythropoietin (EPO) treatment in a panel of ovarian cancer cell lines. […] It was then necessary to determine protein expression of these receptors in the panel. […] We then categorized these expression changes particularly with regard to the EPOR and EPH-B4 to then analyze the response to EPO treatment. We analyzed their response to chemotherapy in conjunction with EPO. […] It was then necessary to analyze the activation of signaling pathways known to be activated by these receptors in response to EPO treatment. Three cell lines were starved for two hours to isolate their response to EPO. […] We then sought to determine a EPO dose that optimized its tumor promoting effect in vivo. Female nude mice were injected i.p. with HeyA8 MDR (positive for both EPOR and EPH-B4). […] Treatment continued until tumors became evident, the mice were then sacrificed and the tumor weight was determined. […]
# [2] = 351 patients receiving radiotherapy; 3 times per week, from 10 to 14 days before and through radiation therapy; placebo 15%; cited from earlier work
substance,measurement,setting,value
"AS-10M: antisense ODN AS-10 with the cytosine at the CpG site methylated (ATGGAGGCCTCGCTCAGAAA; DNA, [5mC] at 11, backbone and methylation of C not given here; listed as Homo sapiens)",EphB4 knockdown efficiency,[1],without any loss
"CEpo: carbamylated Epo, does not stimulate erythropoiesis (Leist et al.)",stimulation of erythropoiesis / haematopoiesis,erythropoiesis,does not stimulate
same,stimulation of erythropoiesis / haematopoiesis,erythropoiesis; listed as carbamylated EPO,fail to induce haematopoiesis
same,tissue injury / neuroprotection,tissue injury,prevents
same,tissue injury / neuroprotection,tissue injury; listed as carbamylated EPO,neuroprotective
"EPH-B4 siRNA: siRNA specific to EPH-B4, sense 5′CAGCCAAUAGCCACUCUAA3′ (SEQ ID NO: 266), antisense 5′UUAGAGUGGCUAUUGGCUG3′ (SEQ ID NO: 267) (listed as RNA, chemistry not given here; listed as Homo sapiens)",EPO induced tumor growth,HeyA8-MDR cells; siRNA 5 μg 2× week in conjunction with EPO 50 U 3× week,completely abrogated
same,tumor growth,"HeyA8-MDR cells; siRNA alone, 5 μg siRNA 2× week from day eight",decrease
"epoetin beta: EPO in the form of epoetin beta, NeoRecormon from Roche",patients with increased haemoglobin levels,[2],82%
